In this assay the target is T1, wild-type LRRK2 (Homo sapiens, UniProt Q5S007).
T1 construct: DNA tag for qPCR detection (not a peptide; the protein part that carries it is not described); made in house; host or cells: HEK 293 cells (the same paragraph also describes T7 phage grown in E. coli BL21)
Kind of assay: Inhibitory activity against LRRK2: competition binding to ligand-affinity beads, DNA-tagged kinase quantitated by qPCR. Particulars: % of ctrl; for remaining binding at 0.01 µM: 10 nM compound, read-out: LRRK2(WT) Remaining kinase activity(%) at 10 nM; for remaining binding at 0.05 µM: 50 nM compound, read-out: LRRK2(WT) Remaining kinase activity(%) at 50 nM. As to the method:
Representative compounds synthesized in Example 1 were assayed for inhibitory activity against wild-type LRRK2 and mutant LRRK2 (G2019S), and the results are summarized in Tables 2 and 3. In brief, a T7 phase strain carrying the wild-type kinase consisting of amino acid residues from H970 to E2527 of human-derived LRRK2 (Accession no. NP_940980.3) or a T7 phase strain carrying the G2019S mutation kinase was infected into E. coli strain BL21 which was then grown until log phase. After infection with T7 phases (multiplicity of infection=0.4), the cells were cultured at 32° C. for 90-150 minutes while shaking. Then, E. coli lysates were centrifuged (6,000×g) and the supernatant was filtered through a 0.2-μm filter. The kinases were produced in HEK 293 cells. In this regard, DNA was tagged to obtain DNA-tagged kinases for qPCR detection. For use in analyzing the kinases, affinity resins were prepared by treating streptavidin-coated magnetic beads with biotinylated small molecule ligands at room temperature for 30 minutes. Then, the liganded beads were blocked with an excess of biotin and washed with a blocking buffer (SeaBlock (Pierce), 1% BSA, 0.05% Tween 20, 1 mM DTT) to remove unbound ligands and thus to reduce the binding of non-specific phages. […] After one hour of incubation, the affinity beads were washed with a wash buffer (1×PBS, 0.05% Tween 20), resuspended in an elution buffer (1×PBS, 0.05% Tween 20, 0.5 μM non-biotinylated affinity ligand), and incubated at room temperature for 30 minutes while shaking. Afterwards, concentrations of wild-type LRRK2 and mutant LRRK2 (G2019S) in the eluted samples were quantitated by qPCR. Activity values are expressed as percentages relative to the control (% of ctrl). The compounds used in the activity assay were prepared into 40× stocks in 100% DMSO. The stocks were directly diluted during analysis procedures.
Table 2 includes inhibitory activities of the representative compounds of the present disclosure at 100 nM against wild-type LRRK2 and mutant LRRK2 (G2019S) while Table 3 includes inhibitory activities of the representative compounds at 10 nM and 50 nM against wild-type LRRK2. (+++ less than 10%; ++ less than 30%; + less than 50%; −50% or higher)
In general terms: Quantitative PCR measures a nucleic acid by following its amplification.

T1 sequence (Q5S007 970-2527): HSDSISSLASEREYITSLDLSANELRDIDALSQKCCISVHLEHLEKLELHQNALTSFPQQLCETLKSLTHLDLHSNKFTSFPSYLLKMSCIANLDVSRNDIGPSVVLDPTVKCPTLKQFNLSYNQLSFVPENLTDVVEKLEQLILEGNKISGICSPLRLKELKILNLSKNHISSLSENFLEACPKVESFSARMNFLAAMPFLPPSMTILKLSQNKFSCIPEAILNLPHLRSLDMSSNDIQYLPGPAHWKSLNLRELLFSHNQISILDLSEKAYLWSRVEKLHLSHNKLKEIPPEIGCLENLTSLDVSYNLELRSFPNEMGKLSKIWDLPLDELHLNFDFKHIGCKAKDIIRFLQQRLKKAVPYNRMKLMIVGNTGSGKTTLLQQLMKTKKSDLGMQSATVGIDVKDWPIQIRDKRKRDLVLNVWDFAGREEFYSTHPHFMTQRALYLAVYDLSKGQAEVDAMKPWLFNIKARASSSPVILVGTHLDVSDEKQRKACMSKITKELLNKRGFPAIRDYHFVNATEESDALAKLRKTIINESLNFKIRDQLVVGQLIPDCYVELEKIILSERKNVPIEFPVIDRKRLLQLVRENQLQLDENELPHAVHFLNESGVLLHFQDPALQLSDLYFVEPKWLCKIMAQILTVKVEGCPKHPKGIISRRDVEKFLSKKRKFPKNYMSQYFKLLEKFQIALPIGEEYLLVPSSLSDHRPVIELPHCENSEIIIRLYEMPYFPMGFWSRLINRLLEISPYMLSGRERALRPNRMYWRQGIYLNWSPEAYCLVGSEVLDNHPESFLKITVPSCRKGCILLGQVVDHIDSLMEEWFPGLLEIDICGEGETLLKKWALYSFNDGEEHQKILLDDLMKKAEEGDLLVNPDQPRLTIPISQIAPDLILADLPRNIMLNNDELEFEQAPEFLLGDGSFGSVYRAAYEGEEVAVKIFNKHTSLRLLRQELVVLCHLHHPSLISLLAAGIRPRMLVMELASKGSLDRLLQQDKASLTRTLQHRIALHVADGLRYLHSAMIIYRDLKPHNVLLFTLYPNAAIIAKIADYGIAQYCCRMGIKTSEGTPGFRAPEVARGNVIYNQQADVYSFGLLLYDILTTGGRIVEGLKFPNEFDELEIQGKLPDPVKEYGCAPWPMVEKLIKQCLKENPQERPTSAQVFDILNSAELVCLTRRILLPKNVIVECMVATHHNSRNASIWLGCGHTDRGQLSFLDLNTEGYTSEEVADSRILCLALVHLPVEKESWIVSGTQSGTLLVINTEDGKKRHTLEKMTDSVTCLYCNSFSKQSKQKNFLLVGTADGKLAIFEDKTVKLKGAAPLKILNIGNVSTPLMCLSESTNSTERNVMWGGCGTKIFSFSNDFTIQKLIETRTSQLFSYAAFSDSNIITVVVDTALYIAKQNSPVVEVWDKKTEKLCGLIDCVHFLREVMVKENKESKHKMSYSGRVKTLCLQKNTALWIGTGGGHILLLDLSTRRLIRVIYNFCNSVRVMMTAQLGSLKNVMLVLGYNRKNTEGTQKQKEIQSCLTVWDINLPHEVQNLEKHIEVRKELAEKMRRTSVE

In the case of `COCCNC(=O)c1ccc(Nc2ncc(Cl)c(-c3cnn(C(C)C)c3)n2)c(OC)c1` [Compound 140, 4-((5-chloro-4-(1-isopropyl-1H-pyrazol-4-yl)pyrimidin-2-yl)amino)-3-methoxy-N-(2-methoxyethyl)benzamide], the remaining binding at 0.01 µM is at least 50% and the remaining binding at 0.05 µM is below 30%.

`COc1cc(C(=O)N(C)CCO)ccc1Nc1ncc(Cl)c(-c2cnn(C(C)C)c2)n1` [Compound 141, 4-((5-chloro-4-(1-isopropyl-1H-pyrazol-4-yl)pyrimidin-2-yl)amino)-N-(2-hydroxyethyl)-3-methoxy-N-methylbenzamide]: the remaining binding at 0.01 µM is at least 50% and the remaining binding at 0.05 µM is below 30%.

Turning to `COc1cc(C(=O)Nc2ccc(Cl)cc2)ccc1Nc1ncc(Cl)c(-c2cnn(C(C)C)c2)n1` [Compound 151, 4-((5-chloro-4-(1-isopropyl-1H-pyrazol-4-yl)pyrimidin-2-yl)amino)-N-(4-chlorophenyl)-3-methoxybenzamide], the remaining binding at 0.01 µM was at least 50% and the remaining binding at 0.05 µM was below 50%.

For `COc1cc(C(=O)NCc2cccc(O)c2)ccc1Nc1ncc(Cl)c(-c2cnn(C(C)C)c2)n1` [Compound 152, 4-((5-chloro-4-(1-isopropyl-1H-pyrazol-4-yl)pyrimidin-2-yl)amino)-N-(3-hydroxybenzyl)-3-methoxybenzamide], the remaining binding at 0.01 µM was at least 50% and the remaining binding at 0.05 µM is below 30%.

In the case of `COc1ccccc1CNC(=O)c1ccc(Nc2ncc(Cl)c(-c3cnn(C(C)C)c3)n2)c(OC)c1` [Compound 154, 4-((5-chloro-4-(1-isopropyl-1H-pyrazol-4-yl)pyrimidin-2-yl)amino)-3-methoxy-N-(2-methoxybenzyl)benzamide], the remaining binding at 0.01 µM is at least 50% and the remaining binding at 0.05 µM was below 30%.

As for `COc1cc(C(=O)NC2CC(C)(C)NC(C)(C)C2)ccc1Nc1ncc(Cl)c(-c2cnn(C(C)C)c2)n1` [Compound 166, 4-((5-chloro-4-(1-isopropyl-1H-pyrazol-4-yl)pyrimidin-2-yl)amino)-3-methoxy-N-(2,2,6,6-tetramethylpiperidin-4-yl)benzamide], the remaining binding at 0.01 µM is at least 50% and the remaining binding at 0.05 µM is below 30%.

For the molecule `COc1cc(C(=O)NN2C(C)CCCC2C)ccc1Nc1ncc(Cl)c(-c2cnn(C(C)C)c2)n1` (stereo not shown) [Compound 167, 4-((5-chloro-4-(1-isopropyl-1H-pyrazol-4-yl)pyrimidin-2-yl)amino)-N-(2,6-dimethylpiperidin-1-yl)-3-methoxybenzamide], the remaining binding at 0.01 µM is at least 50% and the remaining binding at 0.05 µM was below 30%.

As for `COc1cc(C(=O)NCc2ccc(Cl)nc2)ccc1Nc1ncc(Cl)c(-c2cnn(C(C)C)c2)n1` [Compound 168, 4-((5-chloro-4-(1-isopropyl-1H-pyrazol-4-yl)pyrimidin-2-yl)amino)-N-((6-chloropyridin-3-yl)methyl)-3-methoxybenzamide], the remaining binding at 0.01 µM was at least 50% and the remaining binding at 0.05 µM was below 50%.

`CCOC(=O)CCNC(=O)c1ccc(Nc2ncc(Cl)c(-c3cnn(C(C)C)c3)n2)c(OC)c1` [Compound 176, ethyl 3-(4-((5-chloro-4-(1-isopropyl-1H-pyrazol-4-yl)pyrimidin-2-yl)amino)-3-methoxybenzamido)propanoate]: the remaining binding at 0.01 µM is at least 50% and the remaining binding at 0.05 µM was below 50%.

As for `COc1cc(C(=O)NC(C)c2ccccc2)ccc1Nc1ncc(Cl)c(-c2cnn(C(C)C)c2)n1` (stereo not shown) [Compound 179, 4-((5-chloro-4-(1-isopropyl-1H-pyrazol-4-yl)pyrimidin-2-yl)amino)-3-methoxy-N-(1-phenylethyl)benzamide], the remaining binding at 0.01 µM is at least 50% and the remaining binding at 0.05 µM was below 50%.

As for `CCC(NC(=O)c1ccc(Nc2ncc(Cl)c(-c3cnn(C(C)C)c3)n2)c(OC)c1)c1ccccc1` (stereo not shown) [Compound 182, 4-((5-chloro-4-(1-isopropyl-1H-pyrazol-4-yl)pyrimidin-2-yl)amino)-3-methoxy-N-(1-phenylpropyl)benzamide], the remaining binding at 0.01 µM was at least 50% and the remaining binding at 0.05 µM is below 50%.

The values are drawn from US20240254103A9, “NOVEL PYRIMIDINE DERIVATIVE, AND COMPOSITION FOR PREVENTING OR TREATING NEURODEGENERATIVE DISEASES AND CANCER, COMPRISING SAME” (WHAN IN PHARMACEUTICAL CO., LTD., priority 2020, published 2024).
